IC50 and IC90 data for one compound are collected here from patent US9328122B2, “7-substituted Hanfangichin B derivative, and preparation method and use thereof” (HANGZHOU BENSHENG PHARMACEUTICAL CO., LTD., priority 2012, dated 2016).

Converted amounts (≈) assume the structure as drawn.

For the first test, the system named is K562/ADR (K562adr, drug-resistant chronic myeloid leukemia) cells. The test can be described thus: MTT cell growth inhibition, leukemia cells. The test is classed as cell-based. As to conditions: Homo sapiens; K562/ADR, 72 h, MTT; read-out: IC50. The text has this: (§1) Leukemia cell lines: leukemia cell lines: K562adr (drug-resistant, chronic myeloid leukemia, CML), NB4 (acute promyelocytic leukemia, AML), Kasumi-1 (acute myeloid leukemia M2 type, AML-M2), Jurkat (acute lymphoblastic leukemia, ALL), all of which were donated by Cancer Research Institute of Zhejiang University, China; and H9 (acute lymphoblastic leukemia, ALL), which was purchased from China Center for Type Culture Collection.
(§2) Reagents: The standard sample of fangchinoline (FAN) was purchased from Ci Yuan Biotechnology Co., Ltd., Shaanxi, China; and the 7-substituted fangchinoline derivatives according to the present invention.
(§3) 6000 well-growing leukemia cells were obtained and inoculated into wells of a 96-well cell culture plate. The culture medium was a RPMI-1640 cell culture medium containing 10% fetal bovine serum. After adding the 7-substituted fangchinoline derivatives of different concentrations the next day and mixing uniformly, the plate was placed in a carbon dioxide cell incubator (5% CO2) at 37° C. and incubating for 72 hours. Then the viable cell concentration was determined by the MTT method.
As a reminder, the IC50 is the concentration that inhibits the measured activity by half. With `COc1ccc2cc1Oc1ccc(cc1)C[C@H]1c3cc(c(OC)cc3CCN1C)Oc1c(OCC3CC3)c(OC)cc3c1[C@H](C2)N(C)CC3` [BS-FC-208], the IC50 is 0.28 µg/mL (≈ 0.422 µM).

Staying with this test, now noted: Homo sapiens; K562/ADR, 72 h, MTT; read-out: IC90.
Usually IC90 stands for the concentration at which the effect reaches the 90% level. Regarding `COc1ccc2cc1Oc1ccc(cc1)C[C@H]1c3cc(c(OC)cc3CCN1C)Oc1c(OCC3CC3)c(OC)cc3c1[C@H](C2)N(C)CC3` [BS-FC-208], the IC90 stood at 2.35 µg/mL (≈ 3.55 µM).

The subject of a further test is NB4 (acute promyelocytic leukemia) cells. The test can be described thus: MTT cell growth inhibition, leukemia cells. In kind it is cell-based. To be noted: Homo sapiens; NB4, 72 h, MTT; read-out: IC50.
From the text: as §1, §2, §3
On to `COc1ccc2cc1Oc1ccc(cc1)C[C@H]1c3cc(c(OC)cc3CCN1C)Oc1c(OCC3CC3)c(OC)cc3c1[C@H](C2)N(C)CC3` [BS-FC-208], for which the IC50 is 0.48 µg/mL (≈ 0.724 µM).

The same test, now with this note: Homo sapiens; NB4, 72 h, MTT; read-out: IC90.
With `COc1ccc2cc1Oc1ccc(cc1)C[C@H]1c3cc(c(OC)cc3CCN1C)Oc1c(OCC3CC3)c(OC)cc3c1[C@H](C2)N(C)CC3` [BS-FC-208], the IC90 was found to be 2.48 µg/mL (≈ 3.74 µM).

The subject of the next test is H9 (acute lymphoblastic leukemia) cells. The test can be described thus: MTT cell growth inhibition, leukemia cells. In kind it is cell-based, human. To be noted: Homo sapiens; H9, 72 h, MTT; read-out: IC50.
From the text: as §1, §2, §3
Consider `COc1ccc2cc1Oc1ccc(cc1)C[C@H]1c3cc(c(OC)cc3CCN1C)Oc1c(OCC3CC3)c(OC)cc3c1[C@H](C2)N(C)CC3` [BS-FC-208], for which the IC50 worked out at 2.01 µg/mL (≈ 3.03 µM).

Staying with this test, now noted: Homo sapiens; H9, 72 h, MTT; read-out: IC90.
As for `COc1ccc2cc1Oc1ccc(cc1)C[C@H]1c3cc(c(OC)cc3CCN1C)Oc1c(OCC3CC3)c(OC)cc3c1[C@H](C2)N(C)CC3` [BS-FC-208], the IC90 came out at 4.28 µg/mL (≈ 6.46 µM).

The next test concerns Jurkat (acute lymphoblastic leukemia) cells. Kind of test: MTT cell growth inhibition, leukemia cells. In kind it is cell-based, human. To be noted: Homo sapiens; Jurkat, 72 h, MTT; read-out: IC50.
From the text: as §1, §2, §3
As to `COc1ccc2cc1Oc1ccc(cc1)C[C@H]1c3cc(c(OC)cc3CCN1C)Oc1c(OCC3CC3)c(OC)cc3c1[C@H](C2)N(C)CC3` [BS-FC-208], the IC50 came out at 0.75 µg/mL (≈ 1.13 µM).

The test is the same for the next values; noted with them: Homo sapiens; Jurkat, 72 h, MTT; read-out: IC90.
As for `COc1ccc2cc1Oc1ccc(cc1)C[C@H]1c3cc(c(OC)cc3CCN1C)Oc1c(OCC3CC3)c(OC)cc3c1[C@H](C2)N(C)CC3` [BS-FC-208], the IC90 was determined as 1.88 µg/mL (≈ 2.84 µM).

The test system of a further test is Kasumi-1 (acute myeloid leukemia M2 type) cells. Kind of test: MTT cell growth inhibition, leukemia cells. The test is classed as cell-based, human. To be noted: Homo sapiens; Kasumi-1, 72 h, MTT; read-out: IC50.
From the text: as §1, §2, §3
For `COc1ccc2cc1Oc1ccc(cc1)C[C@H]1c3cc(c(OC)cc3CCN1C)Oc1c(OCC3CC3)c(OC)cc3c1[C@H](C2)N(C)CC3` [BS-FC-208], the IC50 turned out to be 0.97 µg/mL (≈ 1.46 µM).

The test is the same for the next values; noted with them: Homo sapiens; Kasumi-1, 72 h, MTT; read-out: IC90.
For the compound `COc1ccc2cc1Oc1ccc(cc1)C[C@H]1c3cc(c(OC)cc3CCN1C)Oc1c(OCC3CC3)c(OC)cc3c1[C@H](C2)N(C)CC3` [BS-FC-208], the IC90 amounted to 4.01 µg/mL (≈ 6.05 µM).

A further test deals with RPMI 8226 (multiple myeloma) cells. The test can be described thus: MTT cell growth inhibition, multiple myeloma cells. The test is classed as cell-based, human. To be noted: Homo sapiens; RPMI 8226, 72 h, MTT; read-out: IC50. The method, then: Myeloma cell lines: RPMI8226 (multiple myeloma), purchased from Fuxiang Bio-tech Co. Ltd., Shanghai, China.
6000 well-growing cells were obtained and inoculated into wells of a 96-well cell culture plate. The culture medium was a RPMI-1640 cell culture medium containing 10% fetal bovine serum. After adding the 7-substituted fangchinoline derivatives of different concentrations the next day and mixing uniformly, the plate was placed in a carbon dioxide cell incubator (5% CO2) at 37° C. and incubated for 72 hours. Then the viable cell concentration was determined by the MTT method.
With `COc1ccc2cc1Oc1ccc(cc1)C[C@H]1c3cc(c(OC)cc3CCN1C)Oc1c(OCC3CC3)c(OC)cc3c1[C@H](C2)N(C)CC3` [BS-FC-208], the IC50 stood at 0.13 µg/mL (≈ 0.196 µM).

The test is the same for the next values; noted with them: Homo sapiens; RPMI 8226, 72 h, MTT; read-out: IC90.
Consider `COc1ccc2cc1Oc1ccc(cc1)C[C@H]1c3cc(c(OC)cc3CCN1C)Oc1c(OCC3CC3)c(OC)cc3c1[C@H](C2)N(C)CC3` [BS-FC-208], for which the IC90 amounted to 0.5 µg/mL (≈ 0.754 µM).

The next test deals with CNE (nasopharyngeal carcinoma) cells. The test can be described thus: MTT cell growth inhibition, solid tumor cells. In kind it is cell-based, human. As to conditions: Homo sapiens; CNE, 72 h, MTT; read-out: IC50. An excerpt:
(§4) Hep-2 (laryngeal carcinoma), A549 (human lung cancer), CaES-17 (esophageal cancer cell), PC-3 (prostate cancer), CNE (nasopharyngeal carcinoma cell) and SK-OV-3 (ovarian cancer cell), all of which were purchased from China Center For Type Culture Collection; RKO (human colon adenocarcinoma cell), MGC-803 (human gastric cancer cell), MG-63 (osteosarcoma), and U87-MG (malignant glioma cell), all of which were purchased from Fuxiang Bio-tech Co. Ltd., Shanghai, China; PANC-1 (pancreatic cancer), Becap37 (human breast cancer cell), Hela (human cervical cancer cell) and Hep G2 (human liver cancer cell), all of which were donated by Cancer Research Institute of Zhejiang University, China.
(§5) 6000 well-growing human solid tumor cells were obtained and inoculated into wells of a 96-well cell culture plate. The culture medium was DMEM High Glucose cell culture medium containing 10% fetal bovine serum. The plate was placed in a carbon dioxide cell incubator (5% CO2) at 37° C. and incubated for 24 hours. After added with 7-substituted fangchinoline derivatives of different concentration and mixing uniformly, the plate was placed in a carbon dioxide cell incubator (5% CO2) at 37° C. and incubated for 72 hours. Then the viable cell concentration was determined by the MTT method.
For `COc1ccc2cc1Oc1ccc(cc1)C[C@H]1c3cc(c(OC)cc3CCN1C)Oc1c(OCC3CC3)c(OC)cc3c1[C@H](C2)N(C)CC3` [BS-FC-208], the IC50 is 2.7 µg/mL (≈ 4.07 µM).

Still in this test, the particulars now being: Homo sapiens; CNE, 72 h, MTT; read-out: IC90.
As for `COc1ccc2cc1Oc1ccc(cc1)C[C@H]1c3cc(c(OC)cc3CCN1C)Oc1c(OCC3CC3)c(OC)cc3c1[C@H](C2)N(C)CC3` [BS-FC-208], the IC90 was determined as 6 µg/mL (≈ 9.05 µM).

Another test has as its system CaEs-17 (esophageal cancer) cells. The test can be described thus: MTT cell growth inhibition, solid tumor cells. In kind it is cell-based, human. To be noted: Homo sapiens, CaEs17; CaEs-17, 72 h, MTT; read-out: IC50.
From the text: as §4, §5
On to `COc1ccc2cc1Oc1ccc(cc1)C[C@H]1c3cc(c(OC)cc3CCN1C)Oc1c(OCC3CC3)c(OC)cc3c1[C@H](C2)N(C)CC3` [BS-FC-208], for which the IC50 came out at 1.79 µg/mL (≈ 2.7 µM).

The test is the same for the next values; noted with them: Homo sapiens, CaEs17; CaEs-17, 72 h, MTT; read-out: IC90.
Take `COc1ccc2cc1Oc1ccc(cc1)C[C@H]1c3cc(c(OC)cc3CCN1C)Oc1c(OCC3CC3)c(OC)cc3c1[C@H](C2)N(C)CC3` [BS-FC-208]: the IC90 is 6.87 µg/mL (≈ 10.4 µM).

The test system of the next test is PANC-1 (pancreatic cancer) cells. The test can be described thus: MTT cell growth inhibition, solid tumor cells. The test is classed as cell-based, human. As to conditions: Homo sapiens; PANC-1, 72 h, MTT; read-out: IC50.
From the text: as §4, §5
Regarding `COc1ccc2cc1Oc1ccc(cc1)C[C@H]1c3cc(c(OC)cc3CCN1C)Oc1c(OCC3CC3)c(OC)cc3c1[C@H](C2)N(C)CC3` [BS-FC-208], the IC50 is 2.87 µg/mL (≈ 4.33 µM).
